Assay results reported in paper PMC11882969 (Nature Communications, 2025).
Where “and” joins values, the source holds several entries; their conditions need not be identical. Equal values may be shown once. Read-outs that look alike come from different tables or passages of the source.

Tests used:
CB1 (rCB1) = CB1 (rCB1) (Rattus norvegicus, UniProt P20272); test: Radioligand competition binding, [3H]-CP-55,940, rat brain membranes
hCB1 = hCB1 (Homo sapiens, UniProt P21554); test: bioSensAll ebBRET signaling profiling, hCB1; assay type: cell-based; parameters: host or cells: HEK293SL cells, transient PEI transfection; conditions: for Gi1 hCB1 response: Gi1 biosensor; for Gi1 hCB1 / GoB hCB1: single replicate values, FigS6a; for EC50: read-out: EC50 [95% CI]; for Emax: normalized to CP-55,940
Sequence of hCB1 (P21554 whole entry): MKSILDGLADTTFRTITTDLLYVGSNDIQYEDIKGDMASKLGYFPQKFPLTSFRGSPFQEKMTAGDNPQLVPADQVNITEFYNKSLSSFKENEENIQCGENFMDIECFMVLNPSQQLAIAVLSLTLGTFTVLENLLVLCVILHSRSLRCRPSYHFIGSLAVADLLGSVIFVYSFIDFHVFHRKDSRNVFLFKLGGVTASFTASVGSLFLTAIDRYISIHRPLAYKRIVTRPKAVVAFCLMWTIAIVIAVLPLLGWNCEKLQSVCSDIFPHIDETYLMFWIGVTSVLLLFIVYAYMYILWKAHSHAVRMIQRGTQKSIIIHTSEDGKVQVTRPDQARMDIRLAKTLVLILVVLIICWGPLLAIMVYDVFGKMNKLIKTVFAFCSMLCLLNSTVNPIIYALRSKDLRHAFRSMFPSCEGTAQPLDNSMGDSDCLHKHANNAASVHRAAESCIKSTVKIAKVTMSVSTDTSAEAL

Sequence of CB1 (rCB1) (P20272 whole entry): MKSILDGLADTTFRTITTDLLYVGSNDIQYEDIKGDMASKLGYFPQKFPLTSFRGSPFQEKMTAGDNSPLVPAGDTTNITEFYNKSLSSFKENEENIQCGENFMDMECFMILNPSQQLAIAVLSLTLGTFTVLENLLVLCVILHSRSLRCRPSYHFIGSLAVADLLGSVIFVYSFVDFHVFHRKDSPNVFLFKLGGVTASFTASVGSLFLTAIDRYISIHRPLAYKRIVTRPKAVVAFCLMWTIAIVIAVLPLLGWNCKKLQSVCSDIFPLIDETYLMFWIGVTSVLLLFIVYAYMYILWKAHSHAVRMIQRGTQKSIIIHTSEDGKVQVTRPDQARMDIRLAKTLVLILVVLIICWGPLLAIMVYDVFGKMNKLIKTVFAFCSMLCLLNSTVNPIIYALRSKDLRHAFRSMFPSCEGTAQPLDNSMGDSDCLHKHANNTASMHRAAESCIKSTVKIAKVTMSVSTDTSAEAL

SMILES: Cc1cc(C(=O)NC(c2ccco2)c2ccco2)nn1-c1cccc(C(F)(F)F)c1 [‘1090]
- pKi [95% CI] (CB1 (rCB1); rCB1): 7.0 [6.7 – 7.4]
- Ki (CB1 (rCB1); read-out: Ki [95% CI], rCB1, [3H]-CP-55,940): 90.8 nM
- Gi1 hCB1 response (hCB1; Log [Compound] (M) -4.22186): 110.038
- Gi1 hCB1 response (hCB1; Log [Compound] (M) -4.63927): 112.164
- Gi1 hCB1 response (hCB1; Log [Compound] (M) -5.05788): 98.6907
- Gi1 hCB1 response (hCB1; Log [Compound] (M) -5.47381): 79.5321
- Gi1 hCB1 response (hCB1; Log [Compound] (M) -5.89285): 73.4668
- Gi1 hCB1 response (hCB1; Log [Compound] (M) -6.31878): 61.1346
- Gi1 hCB1 response (hCB1; Log [Compound] (M) -6.72585): 69.6395
- Gi1 hCB1 response (hCB1; Log [Compound] (M) -7.14267): 48.8248
- Gi1 hCB1 response (hCB1; Log [Compound] (M) -7.55284): 35.6645
- Gi1 hCB1 response (hCB1; Log [Compound] (M) -8): 6.211
- Gi1 hCB1 response (hCB1; Log [Compound] (M) -8.22186): 13.1264
- Gi1 hCB1 response (hCB1; Log [Compound] (M) -8.39794): -25.5487
- Gi1 hCB1 response (hCB1; Log [Compound] (M) -8.68787): -2.72
- Gi1 hCB1 response (hCB1; Log [Compound] (M) -9.15521): -19.4162
- Gi1 hCB1 response (hCB1; Log [Compound] (M) -9.61989): 5.584
- Gi1 hCB1 response (hCB1; Log [Compound] (M) -10.0969): -17.9838
- Gi1 hCB1 response (hCB1; Log [Compound] (M) -10.5529): 0.2123
- Gi1 hCB1 response (hCB1; Log [Compound] (M) -11.0177): -1.668
- Gi1 hCB1 response (hCB1; Log [Compound] (M) -11.4949): -1.668
- Gi1 hCB1 response (hCB1; Log [Compound] (M) -11.9208): -2.429
- Gi1 hCB1 response (hCB1; Log [Compound] (M) -12.3979): -6.524
- Gi1 hCB1 response (hCB1; Log [Compound] (M) -12.8861): -4.734
- Gi1 hCB1 response (hCB1; Log [Compound] (M) -13, individual replicate values): -8.293 and -12.478
- Gi1 hCB1 (hCB1; Log [Compound] (M) -4.22186): 93.2514
- GoB hCB1 (hCB1; Log [Compound] (M) -4.22186): 92.9275
- Gi1 hCB1 (hCB1; Log [Compound] (M) -4.63927): 80.9336
- GoB hCB1 (hCB1; Log [Compound] (M) -4.63927): 98.7901
- Gi1 hCB1 (hCB1; Log [Compound] (M) -5.05788): 80.7948
- GoB hCB1 (hCB1; Log [Compound] (M) -5.05788): 84.6911
- Gi1 hCB1 (hCB1; Log [Compound] (M) -5.47381): 75.954
- GoB hCB1 (hCB1; Log [Compound] (M) -5.47381): 85.1767
- Gi1 hCB1 (hCB1; Log [Compound] (M) -5.89285): 77.9273
- GoB hCB1 (hCB1; Log [Compound] (M) -5.89285): 88.8273
- Gi1 hCB1 (hCB1; Log [Compound] (M) -6.31878): 77.4032
- GoB hCB1 (hCB1; Log [Compound] (M) -6.31878): 81.2923
- Gi1 hCB1 (hCB1; Log [Compound] (M) -6.72585): 72.1615
- GoB hCB1 (hCB1; Log [Compound] (M) -6.72585): 72.8221
- Gi1 hCB1 (hCB1; Log [Compound] (M) -7.14267): 54.5866
- GoB hCB1 (hCB1; Log [Compound] (M) -7.14267): 60.3417
- Gi1 hCB1 (hCB1; Log [Compound] (M) -7.55284): 37.9676
- GoB hCB1 (hCB1; Log [Compound] (M) -7.55284): 40.506
- Gi1 hCB1 (hCB1; Log [Compound] (M) -8): 20.7318
- GoB hCB1 (hCB1; Log [Compound] (M) -8): 24.4829
- Gi1 hCB1 (hCB1; Log [Compound] (M) -8.22186): 14.9814
- GoB hCB1 (hCB1; Log [Compound] (M) -8.22186): 13.6209
- Gi1 hCB1 (hCB1; Log [Compound] (M) -8.39794): 11.266
- GoB hCB1 (hCB1; Log [Compound] (M) -8.39794): 8.064
- Gi1 hCB1 (hCB1; Log [Compound] (M) -8.68787): 5.932
- GoB hCB1 (hCB1; Log [Compound] (M) -8.68787): 3.406
- Gi1 hCB1 (hCB1; Log [Compound] (M) -9.15521): 2.879
- GoB hCB1 (hCB1; Log [Compound] (M) -9.15521): 0.583
- Gi1 hCB1 (hCB1; Log [Compound] (M) -9.61989): 1.785
- GoB hCB1 (hCB1; Log [Compound] (M) -9.61989): -2.51
- Gi1 hCB1 (hCB1; Log [Compound] (M) -10.0969): 3.897
- GoB hCB1 (hCB1; Log [Compound] (M) -10.0969): -0.2442
- Gi1 hCB1 (hCB1; Log [Compound] (M) -10.5529): 2.155
- GoB hCB1 (hCB1; Log [Compound] (M) -10.5529): -0.55
- Gi1 hCB1 (hCB1; Log [Compound] (M) -11.0177): 2.633
- GoB hCB1 (hCB1; Log [Compound] (M) -11.0177): 0.2233
- Gi1 hCB1 (hCB1; Log [Compound] (M) -11.4949): 3.6965
- GoB hCB1 (hCB1; Log [Compound] (M) -11.4949): 0.565
- Gi1 hCB1 (hCB1; Log [Compound] (M) -11.9208): 1.261
- GoB hCB1 (hCB1; Log [Compound] (M) -11.9208): 2.507
- Gi1 hCB1 (hCB1; Log [Compound] (M) -12.3979): 3.666
- GoB hCB1 (hCB1; Log [Compound] (M) -12.3979): 1.59
- Gi1 hCB1 (hCB1; Log [Compound] (M) -12.8861): 2.17
- GoB hCB1 (hCB1; Log [Compound] (M) -12.8861): 4.557
- Gi1 hCB1 (hCB1; Log [Compound] (M) -13): 1.415 and 2.093
- GoB hCB1 (hCB1; Log [Compound] (M) -13): 4.719 and 2.903
- pEC50 [95% CI] (hCB1; hCB1 Gi1): 7.5 [7.3 – 7.5]
- pEC50 [95% CI] (hCB1; hCB1 GoB): 7.4 [7.3 – 7.5]
- pEC50 [95% CI] (hCB1; hCB1 Gz): 6.9 [6.5 – 7.4]
- EC50 (hCB1; hCB1 Gi1): 35.6 nM
- EC50 (hCB1; hCB1 GoB): 37.3 nM
- Emax (hCB1; read-out: Emax [95% CI], hCB1 Gi1): 81%
- Emax (hCB1; read-out: Emax [95% CI], hCB1 GoB): 90%
- Emax (hCB1; read-out: Emax [95% CI], hCB1 Gz): 115%
